Key:
[1] = system: C6 cells; experiment: Phototoxicity of SIMO1 on C6 cells (laser irradiation, MTT count); format: cell-based; conditions: 20 joules/cm^2 diode laser
Procedure: C6 cells were cultured in flasks of 25 cm^2 (Polylabo, Strasbourg, France) in an RPMI medium supplemented with 10% (V/V) of fetal calf serum (FCS), 100 units of penicillin mL^−1, […] of streptomycin and 2 mM of glutamine.
The cells were replicated by dispersion culturing with 0.025% of trypsin in 0.02% ethylene-diaminotetracetic acid (EDTA) for a contact time of 2 minutes and returned to adhere at a dilution of 1:3, which maintain the cells in the exponential phase of growth. The cells were verified on a regular basis by contamination of the mycoplasms.
The cells thus cultivated were subjected to a photodynamic treatment. Aliquots (11 μl) of the photosensitizing solution SIMO1 were added to C6 cells adhered in wells of plates with 96 wells after trypsonation, as described above. The cellular concentration was 5.10^4 cells/ml^−1 (100 μl per well). The final concentration of the solutions of SIMO1 was comprised within the range of 0.5 to 50 μg/ml. Immediately after addition of the photosensitizer SIMO1, the plates of cells were held in complete darkness till the time of counting, except for a laser irradiation of the cells treated with PDT. The fresh medium containing FCS but free from photosensitizer was prepared before laser irradiation. […]
The optical density of each well of the microplates was then read at 570 nm by means of a Uniskan Titertack (Flow Laboratories, Puteaux, France). […]

[2] = system: C6 cells; experiment: Toxicity of SIMO1 on non-irradiated C6 cells (MTT count); format: cell-based
Procedure: C6 cells were cultured in flasks of 25 cm^2 (Polylabo, Strasbourg, France) in an RPMI medium supplemented with 10% (V/V) of fetal calf serum (FCS), 100 units of penicillin mL^-1, […] of streptomycin and 2 mM of glutamine. The cells were replicated by dispersion culturing with 0.025% of trypsin in 0.02% ethylene-diaminotetracetic acid (EDTA) for a contact time of 2 minutes and returned to adhere at a dilution of 1:3, which maintain the cells in the exponential phase of growth. The cells were verified on a regular basis by contamination of the mycoplasms. The cells thus cultivated were subjected to a photodynamic treatment. Aliquots (11 μl) of the photosensitizing solution SIMO1 were added to C6 cells adhered in wells of plates with 96 wells after trypsonation, as described above. The cellular concentration was 5.10^4 cells/ml^-1 (100 μl per well). The final concentration of the solutions of SIMO1 was comprised within the range of 0.5 to 50 μg/ml. Immediately after addition of the photosensitizer SIMO1, the plates of cells were held in complete darkness till the time of counting, except for a laser irradiation of the cells treated with PDT. The fresh medium containing FCS but free from photosensitizer was prepared before laser irradiation. A laser with a diode at 650 nm was used. The power of the end of the fiber was adjusted, by using a device for measuring power (Coherent, France), at 500 mW. The light was transmitted to the target by an optical fiber at a distance of 20 mm so as to irradiate the cells in the wells 6 mm in diameter within a single field providing an illumination of all of the region. The time of exposure was 13 seconds per well at 650 nm, supplying an energy density of 20 J/cm^2. The cells were incubated with SIMO1 for 5 or 20 hours. For phototoxicity tests, the cells were washed and the medium was replaced immediately before laser irradiation. […] The optical density of each well of the microplates was then read at 570 nm by means of a […] […]

[3] = system: C6 cells; experiment: Intracellular localization and pharmacokinetics in C6 cells by fluorescent imaging; format: cell-based; conditions: FIG. 3; for Incorporation at one hour of incubation (intracellular fluorescence): 1 hour
Procedure: So as to confirm the potential use of the mentioned compounds for the production of a photosensitive composition administrable to a living creature and useful as an agent adapted to give rise, under the influence of irradiation, to cytolysis or necrosis at least partially of at least one target region of the human or animal body, a visualization was conducted of the localization in vitro of the SIMO1 molecule, as well as the determination of the pharmacokinetics compared to m-THPC, by fluorescent imaging so as to confirm that the mentioned compounds were capable of penetrating the cells. Thus, C6 cells were seeded at a rate of 10^5 cells/ml on circular glass plates after trypsinization. After 24 hours, cells were incubated with SIMO1 (10 μg/ml) at 37° C. for 3 hours and then washed with PBS (pH 7.2). Fluorescence analysis of SIMO1 (emitting at 650 nm) was carried out after excitation of 450 nm to 480 nm with a 150 watt Xenon lamp by using a black and white video camera with very sensitive detection of photons (Kappa CF 8/4; Fischer Scientific S.A., France), connected to an optical microscope (Olympus BX 40, France) provided with an oil immersion objective magnifying 100 times.

[4] = system: cellular tumor HT29 obtained initially from human colorectal adenocarcinoma; experiment: In vivo phototoxicity: growth of HT29 tumor grafts in nude mice after injection and laser irradiation; conditions: for Activity on tumor growth, SIMO1 versus m-THPC: 2 mg/kg intra-peritoneal, irradiation 6 hours and 12 hours after injection, FIG. 5
Procedure: To establish these conclusions, the following procedure was used: Swiss male nude/nude mice aged 7 to 9 weeks (weight range 25-35 g) were obtained from Iffa-Credo (L'arbresle, France).
The test method is that of the cellular tumor HT29 obtained initially from human colorectal adenocarcinoma.
The tumor grafts were obtained as follows: nonnecrotic solid tumor tissues (diameter 1 to 2 cm) were removed immediately after death of the donor mouse and then mechanically crushed in 1 ml of a 0.9% saline solution. This solution (0.2 ml) was injected sub-cutaneously into the rear paw of each mouse. This tumor was used one week later, when its diameter was 18-20 mm. […] The wavelength was illumination was selected between 652-653 nm.
The light source was a diode laser at 652 nm.
The luminous density was maintained below 0.3 W.cm^−2, at doses at which the thermal effects are indetectable. A single irradiation was carried out and the time of exposure was calculated as a function of the diameter of the tumor to obtain an energy density of 300 J/cm^−2 at a predetermined constant light density.
Each day, the index of tumor growth was measured by using a slide foot, the principal orthogonal diameters being added and divided by a factor of 2.
A statistical characteristic of the growth index between treated and control mice (without light or SIMO1) was carried by using the Student test.

[5] = In vivo spectrofluorimetric measurement of incorporation and retention in muscle, skin and tumor of mice grafted with HT-29; conditions: 2 mg/kg
Procedure: For these tests, the following was the procedure: spectrofluorimetric measurements were carried out on mice grafted with HT-29 at different intervals of time after injection of 2 mg/kg^−1 of m-THPC or SIMO1. The tested times were 3, 6, 12, 24, 48 and 144 hours on mice.
The level of fluorescence were recorded in different tissues, namely the muscle, the skin and the tumor. The measurements were taken by using an optical fiber placed directly in contact with the tissues. At least four spectra per tissue and per mouse were recorded (at least five mice were used for each experimental condition). Muscle, skin and tumor were successively studied.
The emission spectra of fluorescence of untreated mice tissue were recorded at three separate times so as to estimate the intermouse variations. The values of fluorescent intensity mentioned in FIG. 6 correspond for each organ to the result of the difference between the value of fluorescence obtained in a treated mouse and the value of fluorescence recorded in the control group. The results of spectrofluorometric measurement in vivo were expressed in beats per second (arbitrary unit).

With “2,3-dihydro-5, 15-Bis(3,5-dihydroxy-1-phenyl)-prohyrin [SIMO1]” the “DL50, phototoxic treatment” value ([1]; 5 hours of incubation) was 1.75 µg/mL, the “DL50, phototoxic treatment” value ([1]; 20 hours of incubation) was 0.45 µg/mL and the “DL50, toxicity (non-irradiated)” value [2] was 29 µg/mL. For the same compound, the “SIMO1 toxicity (non-irradiated)” value ([2]; C6 cells, 5 hours of incubation, no irradiation) was “no toxicity was detected”, the “Concentration short of which harmless in the absence of luminous irradiation” value ([2]; C6 cells, no irradiation) was “about 20 μg/ml” and the “Incorporation at one hour of incubation (intracellular fluorescence)” value [3] was “high incorporation”. For the same compound, the “Time of maximum intracellular concentration (fluorescence) after incubation” value [3] was 3 h, the “Activity on tumor growth, SIMO1 versus m-THPC” value [4] was “comparable activity” and the “Retardation between intra-peritoneal injection and laser irradiation giving the most marked effects” value ([4]; 5 mg/kg intra-peritoneal, 300 J/cm^2, FIG. 4) was 12 h. The “Slowing of growth of the tumor” value ([4]; HT-29 grafted nude mice, 5 mg/kg intra-peritoneal, 12 hours between injection and irradiation, 300 J/cm^2 at 652 nm, twelve days after treatment) was 40%, the “Growth of the tumor compared to the untreated control group” value ([4]; all tested conditions: irradiation 2, 6, 12, 24, 48 hours after 5 mg/kg intra-peritoneal, 300 J/cm^2) was “reduction of growth of the tumor” and the “Detection of photosensitive agent in tissues after 48 hours” value ([5]; 48 hours after injection) was “no photosensitive agent was detected”. For the same compound, the “Retention time in all the tissues compared to m-THPC” value ([5]; muscle, skin and tumor, FIG. 6) was “shorter”.

In the case of `Oc1cccc(-c2c3nc(c(-c4cccc(O)c4)c4ccc([nH]4)c(-c4cccc(O)c4)c4nc(c(-c5cccc(O)c5)c5ccc2[nH]5)CC4)C=C3)c1` [m-THPC, reference compound], the “Incorporation at one hour of incubation (intracellular fluorescence)” value [3] is reported as “small incorporation”, the “Time of maximum intracellular concentration (fluorescence) after incubation” value [3] is reported as “increases to 6 hours” and the “Activity on tumor growth, SIMO1 versus m-THPC” value [4] is reported as “comparable activity”. The “Detection of photosensitive agent in tissues 144 hours after injection” value ([5]; 144 hours after injection) was “still detectable”.

From patent US20040022734A1, “Dihydroporphyrin derivatives and their uses” (priority 2000, published 2004)
